From US6642267B2, “Substituted 1,5-dihydropyrrol-2-one derivatives active as NMDA receptor antagonists for treatment of states of pain” (Gruenenthal GmbH, priority 1999, dated 2003)

Experiments:
[1] = system: formalin-induced nociceptive reaction (licking and biting of the paw); test: Formalin test in mice, second (late) phase; type: in vivo; conditions: male NMRI mice
Procedure: The studies for determination of the antinociceptive action of substituted 1,5-dihydropyrrol-2-one derivatives according to the invention were carried out in the formalin test in male albino mice (NMRI, 25-35 g, Iffa Credo, Belgium).
In the formalin test, a distinction is made between the first (early) phase (0-15 min after formalin injection) and the second (late) phase (15-60 min after formalin injection) (D. Dubuisson et al, Pain 4, 161-174 (1977)). The early phase represents a model for acute pain, as a direct reaction to the formalin injection, while the late phase is regarded as a model for persistent (chronic) pain (T. J. Coderre et al, Pain, vol. 52, pp. 259-285 (1993).
The compounds according to the invention were investigated in the second phase of the formalin test to obtain information on substance actions on chronic/inflammatory pain.
By a single subcutaneous formalin injection (20 μl, 1% aqueous solution) into the dorsal side of the right hind paw of freely mobile test animals, a nociceptive reaction was induced, which manifests itself in significant licking and biting of the paw affected.
For the investigation period in the second (late) phase of the formalin test, the nociceptive behaviour was recorded continuously by observing the animals. […] After injection of substances which have an antinociceptive action in the formalin test, the modes of behaviour described for the animals are reduced, and possibly even eliminated.
In a manner corresponding to the substance tests, in which the animals received an injection of the test substance before formalin, the vehicle, i.e. solvent (e.g. 0.9% NaCl solution), was injected into the control animals before the administration of formalin. The behaviour of the animals after administration of the substance (10 mice per substance dosage) was compared with a control group (10 mice).
On the basis of the quantification of the pain properties, the action of the substance in the formalin test was determined as a change from the control in per cent. The ED50 calculations were made by means of regression analysis. […]

[2] = target: T1, glycine-binding site of the NMDA receptor channel (Rattus norvegicus, UniProt P35439); test: Receptor binding study, displacement of (3H)-MDL 105.519 in rat brain membrane homogenates; conditions: rat cortex and hippocampus membrane homogenate; (3H)-MDL 105.519 radioligand; Ki from IC50 by Cheng-Prusoff
T1 construct: from tissue; host or cells: rat brain cortex and hippocampus membrane homogenate (male Wistar rats, Charles River)
Procedure: The studies for determination of the affinity of the substituted 1,5-dihydropyrrol-2-one derivatives of the general formula I for the glycine-binding site of the NMDA receptor channel were carried out on brain membrane homogenates (homogenate of the cortex and hippocampus area from the brain of male rats, Wistar strain, Charles River, WIGA GmbH, Sulzbach, Germany) by the method of Baron B. M. et al, J. Pharmacol. Exp. Ter., vol. 279, pp. 62-68 (1996).
Specifically, the cortex and hippocampus were exposed from freshly removed rat brains and homogenized in 5 mmol/l TRIS-acetate buffer, 0.32 mol/l sucrose pH 7.4 (10 ml/g fresh weight) with a Potter homogenizer (Braun, Melsungen, Germany, 10 plunger strokes at 500 revolutions per minute (rpm)), while cooling with ice, and the mixture was then centrifuged for 10 minutes at 1,000 g and 4° C. The first supernatant was collected and the sediment was homogenized again with 5 mmol/l TRIS-acetate buffer, 0.32 mol/l sucrose pH 7.4 (5 ml/g of original fresh weight of rat brain cortex and hippocampus) with the Potter homogenizer (10 plunger strokes at 500 rpm), while cooling with ice, and the mixture was centrifuged for 10 minutes at 1,000 g and 4° C. The resulting supernatant was combined with the supernatant from the first centrifugation and the mixture was centrifuged at 17,000 g for 20 minutes at 4° C. The supernatant after this centrifugation was discarded and the membrane sediment was taken up in 5 mmol/l TRIS-acetate buffer pH 8.0 (20 ml/g original fresh weight) and the mixture was homogenized with 10 plunger strokes at 500 rpm.
The membrane homogenate was then incubated for 1 hour at 4° C. and centrifuged for 30 minutes at 50,000 g and 4° C. The supernatant was discarded and the centrifuge tube with the membrane sediment was closed with Parafilm and frozen for 24 hours at −20° C. On the following day the membrane sediment was thawed and taken up in ice-cold 5 mmol/l TRIS-acetate buffer, 0.1% saponin (weight/volume) pH 7.0 (10 ml/g original fresh weight) and the mixture was homogenized with 10 plunger strokes at 500 rpm and then centrifuged for 20 minutes at 50,000 g and 4° C. The resulting supernatant was discarded and the sediment was taken up in a small volume of 5 mmol/l TRIS-acetate buffer pH 7.0 (approx. 2 ml/g original fresh weight) and the mixture was homogenized again with 10 plunger strokes at 500 rpm. After the protein content had been determined, the membrane homogenate was adjusted to a protein concentration of 10 mg protein/ml with 5 mmol/l TRIS-acetate buffer pH 7.0 and frozen in aliquots until the analysis was carried out.
For the receptor binding test, aliquots were thawed, diluted 1:10 with 5 mmol/l TRIS-acetate buffer pH 7.0 and homogenized with the Potter homogenizer with 10 plunger strokes at 500 rpm, while cooling with ice, and the mixture was centrifuged for 60 minutes at 55,000 g at 4° C. The supernatant was decanted and the membrane sediment was adjusted to a protein concentration of 1 mg/ml with ice-cold 50 mmol/l TRIS-acetate buffer pH 7.0 and the mixture was homogenized again with 10 plunger strokes at 500 rpm and kept in suspension while stirring on a magnetic stirrer in an ice-bath. In each case 100 μl of this membrane homogenate per 1 ml batch were employed in the receptor binding test (0.1 mg protein/ml in the final batch).
In the binding test, 50 mmol/l TRIS-acetate buffer pH 7.0 were employed as the buffer and […] (^3H)-MDL 105.519 (Baron B. M. at al, J. Pharmacol. Exp. Ther., vol 279, pp. 62-68 (1996)) was employed as the radioactive ligand. The content of non-specific binding was determined in the presence of 1 mmol/l glycine.
In further batches, the compounds according to the invention were added in concentration series and the displacement of the radioactive ligand from its specific binding to the glycine binding site of the NMDA receptor channel was determined. […]

Row | Ki [2] [µM] | melting point [°C] | Compound | % change with respect to the control at 10 mg/kg [1] [%]
1 | 68 |  | O=NC1=C(NCc2ccccc2)C(=Cc2ccccc2)NC1=O [Example 3, 4-Benzylamino-5-benzylidene-3-nitroso-1,5-dihydropyrrol-2-one] | 47.6
2 | 60 |  | CNC1=C(N=O)C(=O)NC1=Cc1ccccc1 [Example 5, 5-Benzylidene-4-methylamino-3-nitroso-1,5-dihydropyrrol-2-one] | 
3 | 70 |  | NC1=C(N=O)C(=O)NC1=Cc1ccccc1 [Example 6, 4-Amino-5-benzylidene-3-nitroso-1,5-dihydropyrrol-2-one] | 
4 | 5 | 218 | O=C1NC(=Cc2ccccc2)C(NCc2ccccc2)=C1[N+](=O)[O-] [Example 9, 4-Benzylamino-5-benzylidene-3-nitro-1,5-dihydropyrrol-2-one] | 
5 | 3 | 238 | CNC1=C([N+](=O)[O-])C(=O)NC1=Cc1ccccc1 [Example 10, 5-Benzylidene-4-methylamino-3-nitro-1,5-dihydropyrrol-2-one] | 

The remaining lines, values behind:

Row | Compound | Ki [2] [µM] | melting point [°C] | % change with respect to the control at 10 mg/kg [1] [%]
6 | O=NC1=C(O)C(=Cc2ccccc2)NC1=O [Example 1, 5-Benzylidene-4-hydroxy-3-nitroso-1,5-dihydro-pyrrol-2-one] |  |  | 63.9
7 | COC1=C(N=O)C(=O)NC1=Cc1ccccc1 [Example 2, 5-Benzylidene-4-methoxy-3-nitroso-1,5-dihydropyrrol-2-one] |  |  | 36.3
8 | O=NC1=C(Nc2ccccc2)C(=Cc2ccccc2)NC1=O [Example 4, 5-Benzylidene-3-nitroso-4-phenylamino-1,5-dihydropyrrol-2-one] | 72 |  | 
9 | O=C1NC(=Cc2ccccc2)C(Nc2ccccc2)=C1[N+](=O)[O-] [Example 8, 5-Benzylidene-3-nitro-4-phenylamino-1,5-dihydropyrrol-2-one] | 9 |  | 
10 | NC1=C([N+](=O)[O-])C(=O)NC1=Cc1ccccc1 [Example 11, 4-Amino-5-benzylidene-3-nitro-1,5-dihydropyrrol-2-one] | 6 | > 260 | 
